# According to patent publication US20130274338A1, “PHARMACEUTICAL COMPOSITIONS COMPRISING DGLA, 15-OHEPA, AND/OR 15-HETRE AND METHODS OF REDUCING SEBUM PRODUCTION USING SAME” (priority 2012, published 2013):
# Test system: P. acnes
# Test: Agar dilution method, growth of P. acnes and MIC, combinations with a fatty acid spike
# Assay type: cell-based, Propionibacterium acnes
# Parameters: key to Growth Index Plate 1 / Growth Index Plate 2 / Growth Index Plate 3 / Growth Index Avg: +++: confluent growth (comparable to control); ++: less confluent growth; +: marked reduction in growth to multiple tiny, single colonies; −: no growth present
# Protocol: Several compounds including fatty acids such as DGLA, 15-OHEPA, and 15-HETrE were tested to determine their capacity to inhibit the growth of P. acnes. In an exemplary method, an agar dilution method was used to determine the minimum inhibitory concentration (MIC) of each tested compound. Briefly, the agar dilution method involved preparing a series of concentrations of each compound (e.g., nicotinamide, benzoyl peroxide, adapalene, metronidazole, DGLA, 15-OHEPA, and 15-HETrE) in a Reinforced Clostridial Agar (RCA) media that facilitates growth of P. acnes under anaerobic conditions. An inoculum of P. acnes was prepared by incubation of P. acnes for approximately seven days at 35-37° C. to achieve a ≧1.0 OD600 inoculum of P. acnes in RCM broth. A portion of this inoculum was then added to the surface of each plate as a 10 μL spot and incubated at 35-37° C. for 72 hours or more. Growth of P. acnes was then observed and compared to control plates in which no compound has been added, and positive inhibition plates prepared with erythromycin. […] The growth of P. acnes in the presence of nicotinamide, benzoyl peroxide, adapalene, metronidazole, DGLA, 15-OHEPA, and 15-HETrE was determined with varying concentrations of the compound (see, Table 2). Next, the MIC was determined as the concentration at which a marked reduction (+) occurs in the appearance of growth on the test plate (as per Clinical and Laboratory Standards Institute M11-A7).
# The compounds tested singly in Example 1 were tested in combination with one another to determine the capacity of the combination to inhibit the growth of P. acnes. In an exemplary method, the MIC was determined for each of the combination as described in Example 1. Briefly, test combinations included DGLA with nicotinamide, benzoyl peroxide, adapalene, or metronidazole; 15-HETrE with nicotinamide, benzoyl peroxide, adapalene, or metronidazole; and 15-OHEPA with nicotinamide, benzoyl peroxide, adapalene, or metronidazole. The tables below show the growth of P. acnes in the presence of 0.4 or 1.0 mg/mL DGLA with varying concentrations of nicotinamide, benzoyl peroxide, adapalene, or metronidazole (Table 3); the growth of P. acnes in the presence of 0.01 or 0.05 mg/mL 15-HETrE with varying concentrations of nicotinamide, benzoyl peroxide, adapalene, or metronidazole (Table 5); and the growth of P. acnes in the presence of 0.5 or 0.1 mg/mL 15-OHEPA with varying concentrations of nicotinamide, benzoyl peroxide, adapalene, or metronidazole (Table 7).
# [1] = compound at 0.2 mg/mL + 0.01 mg/mL 15-HETrE
# [2] = compound at 0.2 mg/mL + 0.05 mg/mL 15-HETrE
# [3] = compound at 0.2 mg/mL + 0.05 mg/mL 15-OHEPA
# [4] = compound at 0.2 mg/mL + 0.1 mg/mL 15-OHEPA
# [5] = compound at 0.2 mg/mL + 0.4 mg/mL dGLA
# [6] = compound at 0.2 mg/mL + 1.0 mg/mL dGLA
# [7] = compound at 0.4 mg/mL + 0.01 mg/mL 15-HETrE
# [8] = compound at 0.4 mg/mL + 0.05 mg/mL 15-HETrE
# [9] = compound at 0.4 mg/mL + 0.05 mg/mL 15-OHEPA
# [10] = compound at 0.4 mg/mL + 0.1 mg/mL 15-OHEPA
# [11] = compound at 0.4 mg/mL + 0.4 mg/mL dGLA
# [12] = compound at 0.4 mg/mL + 1.0 mg/mL dGLA
# [13] = compound at 0.6 mg/mL + 0.01 mg/mL 15-HETrE
# [14] = compound at 0.6 mg/mL + 0.05 mg/mL 15-HETrE
# [15] = compound at 0.6 mg/mL + 0.05 mg/mL 15-OHEPA
# [16] = compound at 0.6 mg/mL + 0.1 mg/mL 15-OHEPA
# [17] = compound at 0.6 mg/mL + 0.4 mg/mL dGLA
# [18] = compound at 0.6 mg/mL + 1.0 mg/mL dGLA
# [19] = compound at 0.8 mg/mL + 0.01 mg/mL 15-HETrE
# [20] = compound at 0.8 mg/mL + 0.05 mg/mL 15-HETrE
# [21] = compound at 0.8 mg/mL + 0.05 mg/mL 15-OHEPA
# [22] = compound at 0.8 mg/mL + 0.1 mg/mL 15-OHEPA
# [23] = compound at 0.8 mg/mL + 0.4 mg/mL dGLA
# [24] = compound at 0.8 mg/mL + 1.0 mg/mL dGLA
# [25] = compound at 1.0 mg/mL + 0.01 mg/mL 15-HETrE
# [26] = compound at 1.0 mg/mL + 0.05 mg/mL 15-HETrE
# [27] = compound at 1.0 mg/mL + 0.05 mg/mL 15-OHEPA
# [28] = compound at 1.0 mg/mL + 0.1 mg/mL 15-OHEPA
# [29] = compound at 1.0 mg/mL + 0.4 mg/mL dGLA
# [30] = compound at 1.0 mg/mL + 1.0 mg/mL dGLA
smiles,measurement,setting,value
O=C(OOC(=O)c1ccccc1)c1ccccc1 [Benzoyl Peroxide],Growth Index Avg,[1],+++
same,Growth Index Plate 1,[1],+++
same,Growth Index Plate 2,[1],+++
same,Growth Index Plate 3,[1],+++
same,Growth Index Avg,[2],−
same,Growth Index Plate 1,[2],−
same,Growth Index Plate 2,[2],−
same,Growth Index Plate 3,[2],−
same,Growth Index Avg,[3],+++
same,Growth Index Plate 1,[3],+++
same,Growth Index Plate 2,[3],+++
same,Growth Index Plate 3,[3],+++
same,Growth Index Avg,[4],−
same,Growth Index Plate 1,[4],−
same,Growth Index Plate 2,[4],−
same,Growth Index Plate 3,[4],−
same,Growth Index Avg,[5],+++
same,Growth Index Plate 1,[5],+++
same,Growth Index Plate 2,[5],+++
same,Growth Index Plate 3,[5],+++
same,Growth Index Avg,[6],++
same,Growth Index Plate 1,[6],++
same,Growth Index Plate 2,[6],++
same,Growth Index Plate 3,[6],+
same,Growth Index Avg,[7],+++
same,Growth Index Plate 1,[7],+++
same,Growth Index Plate 2,[7],+++
same,Growth Index Plate 3,[7],+++
same,Growth Index Avg,[8],−
same,Growth Index Plate 1,[8],−
same,Growth Index Plate 2,[8],−
same,Growth Index Plate 3,[8],−
same,Growth Index Avg,[9],++
same,Growth Index Plate 1,[9],++
same,Growth Index Plate 2,[9],++
same,Growth Index Plate 3,[9],++
same,Growth Index Avg,[10],−
same,Growth Index Plate 1,[10],−
same,Growth Index Plate 2,[10],−
same,Growth Index Plate 3,[10],−
same,Growth Index Avg,[11],−
same,Growth Index Plate 1,[11],+
same,Growth Index Plate 2,[11],−
same,Growth Index Plate 3,[11],−
same,Growth Index Avg,[12],−
same,Growth Index Plate 1,[12],−
same,Growth Index Plate 2,[12],+
same,Growth Index Plate 3,[12],−
same,Growth Index Avg,[13],++
same,Growth Index Plate 1,[13],++
same,Growth Index Plate 2,[13],++
same,Growth Index Plate 3,[13],++
same,Growth Index Avg,[14],−
same,Growth Index Plate 1,[14],−
same,Growth Index Plate 2,[14],−
same,Growth Index Plate 3,[14],−
same,Growth Index Avg,[15],+
same,Growth Index Plate 1,[15],+
same,Growth Index Plate 2,[15],+
same,Growth Index Plate 3,[15],+
same,Growth Index Avg,[16],−
same,Growth Index Plate 1,[16],−
same,Growth Index Plate 2,[16],−
same,Growth Index Plate 3,[16],−
same,Growth Index Avg,[17],−
same,Growth Index Plate 1,[17],−
same,Growth Index Plate 2,[17],−
same,Growth Index Plate 3,[17],−
same,Growth Index Avg,[18],−
same,Growth Index Plate 1,[18],−
same,Growth Index Plate 2,[18],−
same,Growth Index Plate 3,[18],−
same,Growth Index Avg,[19],+
same,Growth Index Plate 1,[19],+
same,Growth Index Plate 2,[19],+
same,Growth Index Plate 3,[19],+
same,Growth Index Avg,[20],−
same,Growth Index Plate 1,[20],−
same,Growth Index Plate 2,[20],−
same,Growth Index Plate 3,[20],−
same,Growth Index Avg,[21],−
same,Growth Index Plate 1,[21],−
same,Growth Index Plate 2,[21],−
same,Growth Index Plate 3,[21],−
same,Growth Index Avg,[22],−
same,Growth Index Plate 1,[22],−
same,Growth Index Plate 2,[22],−
same,Growth Index Plate 3,[22],−
same,Growth Index Avg,[23],−
same,Growth Index Plate 1,[23],−
same,Growth Index Plate 2,[23],−
same,Growth Index Plate 3,[23],−
same,Growth Index Avg,[24],−
same,Growth Index Plate 1,[24],−
same,Growth Index Plate 2,[24],−
same,Growth Index Plate 3,[24],−
same,Growth Index Avg,[25],−
same,Growth Index Plate 1,[25],−
same,Growth Index Plate 2,[25],−
same,Growth Index Plate 3,[25],−
same,Growth Index Avg,[26],−
same,Growth Index Plate 1,[26],−
same,Growth Index Plate 2,[26],−
same,Growth Index Plate 3,[26],−
same,Growth Index Avg,[27],−
same,Growth Index Plate 1,[27],−
same,Growth Index Plate 2,[27],−
same,Growth Index Plate 3,[27],−
same,Growth Index Avg,[28],−
same,Growth Index Plate 1,[28],−
same,Growth Index Plate 2,[28],−
same,Growth Index Plate 3,[28],−
same,Growth Index Avg,[29],−
same,Growth Index Plate 1,[29],−
same,Growth Index Plate 2,[29],−
same,Growth Index Plate 3,[29],−
same,Growth Index Avg,[30],−
same,Growth Index Plate 1,[30],−
same,Growth Index Plate 2,[30],−
same,Growth Index Plate 3,[30],−
same,"growth of P. Acnes in combination with 15-HETrE, compared with 15-HETrE used alone",in combination with 15-HETrE,did not reduce the growth
